± gives the standard deviation of the averaged measurements.
Key:
MK0752 = compound: O=C(O)CC[C@H]1CC[C@@](c2cc(F)ccc2F)(S(=O)(=O)c2ccc(Cl)cc2)CC1 [MK0752]; assay: surviving fraction relative to DMSO-only wells; higher = less growth inhibition; conditions: exposure time: 5 days
Procedure, shortened: (§1)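 Continuous five-day exposure to inhibitors at 0.5, 1, 5, 10, 50, 100, 500 and 1000 nM started 24 hours after log-phase tumour cell lines were seeded at 250–500 cells per well in 384-well plates. Luminescence was read after 10 minutes at room temperature. Viability is given as surviving fraction, meaning CellTiter-Glo luminescence normalised to the median of DMSO-only wells.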

PLX-4720 = compound: CCCS(=O)(=O)Nc1ccc(F)c(C(=O)c2c[nH]c3ncc(Cl)cc23)c1F [PLX-4720]; assay: as above; conditions: exposure time: 5 days
Procedure, shortened: as §1

| Test System | surviving fraction (MK0752; 0.5 nM) | surviving fraction (MK0752; 1 nM) | surviving fraction (MK0752; 5 nM) | surviving fraction (MK0752; 10 nM) | surviving fraction (MK0752; 50 nM) | surviving fraction (MK0752; 100 nM) | surviving fraction (MK0752; 500 nM) | surviving fraction (MK0752; 1000 nM) | surviving fraction (PLX-4720; 0.5 nM) | surviving fraction (PLX-4720; 1 nM) | surviving fraction (PLX-4720; 5 nM) | surviving fraction (PLX-4720; 10 nM) | surviving fraction (PLX-4720; 50 nM) | surviving fraction (PLX-4720; 100 nM) | surviving fraction (PLX-4720; 500 nM) | surviving fraction (PLX-4720; 1000 nM) |
| --- | --- | --- | --- | --- | --- | --- | --- | --- | --- | --- | --- | --- | --- | --- | --- | --- |
| C33A CERVIX | 1.12 ± 0.13 | 1.11 ± 0.08 | 1.06 ± 0.14 | 1.19 ± 0.083 | 1.09 ± 0.066 | 1.19 ± 0.18 | 1.08 ± 0.16 | 1.13 ± 0.1 | 1.03 ± 0.18 | 0.994 ± 0.044 | 1.12 ± 0.14 | 1.13 ± 0.045 | 1.01 ± 0.17 | 1.05 ± 0.13 | 0.946 ± 0.1 | 1.06 ± 0.13 |
| CAL72 BONE | 1.04 ± 0.025 | 1.1 ± 0.043 | 1.084 ± 0.0046 | 1.09 ± 0.021 | 1.11 ± 0.018 | 1.14 ± 0.034 | 1.102 ± 0.011 | 1.12 ± 0.04 | 0.969 ± 0.041 | 1.02 ± 0.036 | 0.964 ± 0.015 | 1.03 ± 0.035 | 1.076 ± 0.006 | 1.104 ± 0.011 | 1.09 ± 0.04 | 1.08 ± 0.036 |
| G292 BONE | 0.974 ± 0.015 | 1.03 ± 0.053 | 1.05 ± 0.033 | 1.05 ± 0.013 | 1.01 ± 0.018 | 0.989 ± 0.019 | 0.914 ± 0.037 | 0.86 ± 0.037 | 0.893 ± 0.022 | 0.977 ± 0.042 | 0.973 ± 0.039 | 0.972 ± 0.043 | 0.956 ± 0.024 | 1.0012 ± 0.00029 | 0.979 ± 0.026 | 0.973 ± 0.085 |
| HCC1395 BREAST | 1.09 ± 0.017 | 0.987 ± 0.16 | 1.08 ± 0.036 | 1.1 ± 0.099 | 1.06 ± 0.011 | 1.06 ± 0.15 | 0.975 ± 0.028 | 0.925 ± 0.12 | 0.827 ± 0.0092 | 0.878 ± 0.15 | 0.82 ± 0.15 | 0.787 ± 0.06 | 0.788 ± 0.17 | 0.888 ± 0.042 | 0.824 ± 0.08 | 0.927 ± 0.098 |
| HUO3N1 BONE | 1.02 ± 0.023 | 1.03 ± 0.021 | 1.051 ± 0.0083 | 1.08 ± 0.042 | 1.07 ± 0.042 | 1.08 ± 0.052 | 1.01 ± 0.02 | 0.9563 ± 0.0042 | 0.849 ± 0.014 | 0.886 ± 0.035 | 0.92 ± 0.055 | 0.913 ± 0.042 | 0.989 ± 0.028 | 1.02 ± 0.059 | 1.01 ± 0.063 | 1.01 ± 0.067 |
| LNCAP PROSTATE | 0.936 ± 0.14 | 0.927 ± 0.12 | 1.03 ± 0.26 | 0.887 ± 0.09 | 1.01 ± 0.098 | 1.02 ± 0.074 | 1.04 ± 0.21 | 1.01 ± 0.12 | 1.17 ± 0.08 | 1.08 ± 0.051 | 1.15 ± 0.097 | 1.12 ± 0.035 | 0.892 ± 0.11 | 0.846 ± 0.011 | 0.898 ± 0.09 | 1.03 ± 0.12 |
| SCC003 HEADNECK | 1.19 ± 0.02 | 1.12 ± 0.15 | 1.14 ± 0.045 | 1.13 ± 0.055 | 1.19 ± 0.12 | 1.24 ± 0.11 | 1.19 ± 0.13 | 1.2 ± 0.039 | 0.76 ± 0.094 | 0.825 ± 0.065 | 0.829 ± 0.14 | 0.81 ± 0.11 | 0.983 ± 0.06 | 1.02 ± 0.034 | 1.01 ± 0.035 | 1.02 ± 0.17 |

From the supplement of paper PMC6045584
